Here are results for eleven compounds from PubChem BioAssay (NCI).

Common to all, as to assay: NCI tumour cell line growth inhibition, 48 h
Assay [1] has as its system DMS 114 small cell lung.
Assay [2] has as its system DMS 273 small cell lung.
Assay [3] deals with HOP-18 NSCLC.
Assay [4] deals with MDA-MB-231 breast.
The subject of assay [5] is MDA-N.
For assay [6], the system named is P388/ADR leukemia.
The subject of assay [7] is RXF-631 renal.

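Cells were grown in 96-well plates and exposed to each compound for 48 hours at five concentrations; endpoints were interpolated linearly between bracketing concentrations, or set to the highest concentration if not reached. GI50: concentration for 50% inhibition of growth. TGI is the concentration that stops growth completely.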 A value given as a limit tells only on which side of the number the result lay.

Consider `CNC=O`, for which the TGI in assay [1], in assay [2], in assay [3], in assay [4], in assay [5] and in assay [6] was above 10000 µM in each case.

As for `Nc1ccccc1Sc1ccc(Cl)cc1`, the TGI in assay [1] is 59.3 µM; in assay [2], 72.5 µM; in assay [3] it was above 100 µM.

As to `COc1cc(/C=C/C(=O)O)ccc1O`, the TGI in assay [4] and in assay [5] was above 100 µM in each case.

For the compound `COc1cc2cnc3c(c2cc1OC)Cc1cc2c(cc1-3)OCO2`, in assay [4], the GI50 was 0.179 µM and the TGI was above 100 µM. For the same compound, in assay [5], the GI50 is above 100 µM and the TGI is above 100 µM.

Consider `C/C(=C1/N=C(c2cc([N+](=O)[O-])ccc2Cl)N(C2=CC=C(Cl)CC2)C1=O)c1cc2ccccc2oc1=O`, for which the TGI in assay [1], in assay [3] and in assay [7] was above 100 µM each time.

Turning to `CCCCN(CCCC)c1ccc(N=Nc2ccc(S(=O)(=O)O)cc2)cc1`, the TGI is 64.7 µM in assay [4] and above 100 µM in assay [5].

Turning to `O=S(=O)(O)c1ccc(N=Nc2ccc(N=Nc3ccc(/C=C/c4ccc(N=[N+]([O-])c5ccc(/C=C/c6ccc(N=Nc7ccc(N=Nc8ccc(S(=O)(=O)O)cc8)c8ccccc78)cc6S(=O)(=O)O)c(S(=O)(=O)O)c5)cc4S(=O)(=O)O)c(S(=O)(=O)O)c3)c3ccccc23)cc1`, the TGI in assay [1], in assay [2] and in assay [3] was above 100 µM throughout.

`CC1=CC[C@H](C)C(C)(C)C1/C=C/C(C)=C/CC[C@@]1(CO)[C@H](CCCO)/C(=C(/C)C=O)CC[C@]1(C)O` (stereo not given in full): the TGI amounted to 13.9 µM in assay [2] and 28.9 µM in assay [3].

`CC(=O)/C=C/c1c[nH]c(=O)[nH]c1=O`: the values for the TGI in assay [1], in assay [2] and in assay [6] were 585 µM, 324 µM and 893 µM, respectively.

`C=CCN1C(=O)/C(=C/c2cccs2)N=C1SC1OC(COC(=O)c2ccccc2)C(OC(=O)c2ccccc2)C1OC(=O)c1ccccc1` (stereo not given) displayed a TGI in assay [4] above 100 µM.

In turn, `C=C1C(C[C@@H]2O[C@H]3C[C@H]4O[C@@]5(C[C@@H]6O[C@]7(C[C@H](C)[C@@H]8O[C@@H]9CC(C(O)CO)O[C@@H]9C[C@@H]8O7)C[C@H](C)[C@@H]6O5)C[C@H]4O[C@H]3[C@H](C)[C@H]2O)O[C@@H](CC[C@@H]2O[C@@H](CC[C@@]34CC5O[C@H]6C(O[C@H]7CC[C@H](CC(=O)OC)O[C@@H]7[C@@H]6O3)[C@H]5O4)CC2=C)C[C@H]1C` (stereo not given in full) yielded a TGI in assay [5] of 0.000124 µM.
